# Results from PMC4589873, “A pain-inducing centipede toxin targets the heat activation machinery of nociceptor TRPV1” (Nature Communications, 2015).
# “Also recorded” adds a separate entry of the source. Where a SMILES comes first, the peptide text is derived from it. Bridges are numbered along the chain shown (N, C = ends).
# Key:
# [1] = tested on: WT mice; test: Paw-licking assay, intraplantar injection; type: in vivo, mouse; settings: 1 μmol per paw in 100 μl saline, 40 min observation
# Procedure: In vivo effects of RhTx on WT mice or Trpv1^−/− mice were examined according to protocols described previously. For the paw-licking assay, pain was induced in mice by intraplantar injection of 0.1% formalin, capsaicin (1 μmol per paw) or RhTx (1 μmol per paw). Each of the testing materials was dissolved in 100 μl saline. Control mice received the same volume of saline. Injected mice were placed individually into open polyvinyl cages (20 × 40 × 15 cm). Time spent licking the injected paw was recorded by a digital video camera during the following 40 min. For recording colonic temperature from WT or Trpv1^−/− mice, mice equipped with a copper-constantan thermocouple were individually placed in open polyvinyl cages. A data logger was connected to the thermocouple. Mice were injected intraperitoneally with 100 μl saline containing capsaicin or RhTx. The dose of capsaicin or RhTx was 10 μmol kg^−1 for these experiments. Mice in the control group received the same volume of saline.
# Supplementary Figure 1. Centipede crude venom -induced paw licking. Pain behavior was induced in mice b y intraplan tar injection of centipede crude venom. After crude venom injection, mice were immediately placed individually into open polyvinyl cages (20 × 40 × 15 cm). The time spent licking the injected paw was recorded by digital video camera during 0- 10 minutes […]
# [2] = tested on: hTRPV1; test: Whole-cell recording of hTRPV1; type: cell-based, human
# Procedure: (§1) As described in details in a previous report, macroscopic currents (in whole-cell, inside-out or outside-out configuration) as well as single-channel currents were recorded using a HEKA EPC10 amplifier with the PatchMaster software (HEKA). Both pipette solution and bath solution contained 130 mM NaCl, 3 mM HEPES and 0.2 mM EDTA (pH 7.2). All recordings were performed at room temperature unless otherwise stated. A holding potential of 0 mV was used from which a testing pulse to +80 mV was applied. Statistical difference was determined using the Student’s t-test, and indicated by ** when reaching the significance level P<0.001.
# Supplementary Figure 3. […] (a) A representative whole-cell recording of hTRPV1 treated with RhTx or capsaicin. (b) Comparison of the dose-response relationships between hTRPV1 and mTRPV1. […]
# mTRPV2 (c), mTRPV3 (d) and mTRPV4 (e). (f) Treatment with 10 μM RhTx (red traces) […]
# (1 picture or pasted object on this page, not shown here)
# [3] = tested on: TRPV1; test: Infrared laser-induced heat activation, inside-out patch; type: cell-based
# Procedure: The experimental set-up for rapidly heating cell membrane containing expressed TRPV1 channels was described in a previous report. Electrophysiological recordings were done in the inside-out mode. Toxin was added in the pipette solution. Laser light of 1,443 nm was generated by a laser diode (Fitel) driven by a controller (Thorlabs). The maximal optic output power of the laser was 250 mW. The laser light was transmitted to the voltage-clamped cell membrane through a single-mode optical fibre (125 μm outer diameter, 10 μm light-conducting core diameter), with the patch pipette tip placed in front of the centre of the optical fibre. Light energy was absorbed by water and converted to heat to drive channel activation. To calibrate the laser heating system, the relationship between laser driving power and temperature was tabulated as previously described. Briefly, a glass pipette was filled with a solution distinct from the bath solution and was centred at the end of the optical fibre. The laser driving power was adjusted to produce junction potential values matching those measured in the same solutions at different temperatures.
# [4] = tested on: TRPV1; test: Cooling of RhTx- or capsaicin-induced channel activation; type: cell-based; settings: RhTx at 1 μM
# Procedure: as §1
# [5] = molecular target: T1, mTRPV1 (Mus musculus, UniProt Q704Y3); test: Whole-cell patch-clamp of mTRPV1 expressed in HEK293 cells; type: cell-based
# T1 construct: expressed in transfected cells; host or cells: HEK-293T
# Excerpt: TRPV1 and TRPV3 chimeras used in this study were generated by the overlapping extension method[54] and confirmed by DNA sequencing, as described previously. Briefly, to generate V1/3S, the primer pairs (5′-[…]-3′and 5′-[…]-3′) were used. To generate other TRPV1/TRPV3 chimeras, the enzyme cutting sites by MluI were made by the primer pair (5′-[…]-3′ and 5′-[…]-3′) for TRPV1 and the primer pair (5′-[…]-3′ and 5′-[…]-3′) for TRPV3. The enzyme cutting sites by PvuI were made by the primer pair (5′-[…]-3′ and 5′-[…]-3′) for TRPV1 and the primer pair (5′-[…]-3′ and 5′-[…]-3′) for TRPV3. The enzyme cutting sites by BsiWI were made by the primer pair (5′-[…]-3′ and 5′-[…]-3′) for TRPV1 and the primer pair (5′-[…]-3′ and 5′-[…]-3′) for TRPV3. V1/3M were generated by enzyme cut and paste between MluI and PvuI sites, while V1/3L were generated by enzyme cut and paste between MluI and BsiWI sites. V1_S1S2_1, V1_S1S2_3 and V1_S1S2_3 were generated as previously reported. All mTRPV1 point mutations were constructed using the QuickChange II XL site-directed mutagenesis kit following the manufacturer’s instruction. These point mutations were sequenced to confirm that appropriate constructs were made. HEK-293T cells were cultured and transiently transfected using Lipofectamine 2,000 (Invitrogen) as previously described.
# as §1
# [6] = Small unilamellar vesicle-binding assay; type: physicochemical
# Procedure: After the film rinsed with pentane was lyophilized at −40 °C overnight, the lipid was suspended with a buffer (10 mM HEPES, 50 mM KCl at pH 7.0). POPE (1-palmitoyl-2-oleoyl-phosphatidylethanolamine, 10 mg ml^−1) and POPG (1-palmitoyl-2-oleoylphosphatidyl-Dl-glycerol, 10 mg ml^−1) were mixed in a 3:1 ratio for POPE/POPG vesicle preparation. In total, 150 mM KCl was used instead of 50 mM KCl. The suspended lipid was then sonicated (in ice water) until the solution became transparent. RhTx was mixed with 10 mg ml^−1 (total concentration) small unilamellar vesicle (SUVs). The mixture was incubated for 40 min at room temperature before ultracentrifugation. Toxin–vesicle mixtures were centrifuged at 304,000g for 150 min. The residual toxins in the supernatant were evaluated by RP-HPLC using a linear gradient of acetonitrile containing 0.1% v/v trifluoroacetic acid.
# [7] = tested on: TRPV1; test: RhTx-induced desensitization of TRPV1 heat activation, inside-out patch; type: cell-based; settings: 10 μM RhTx in patch pipette solution, inside-out patches, heating to 55 °C, n=8
# Excerpt: For recording the RhTx-induced desensitization of TRPV1, temperature control was achieved by perfusion of preheated or room-temperature bathing solution. Hot bathing solution were maintained at expected temperature with an SH-27B in-line solution heater controlled by a TC-324C temperature controller (Warner). A solution exchanger RSC-200 with eight separate tubes to deliver room-temperature bathing solution and capsaicin. A TA-29 miniature bead thermistor (Harvard Apparatus) was placed right next to the pipette to ensure accurate monitoring of local temperature.
# [8] = tested on: mTRPV1 point mutants at D602, Y632, T634 and L461; test: Calcium imaging of mTRPV1 point mutants; type: cell-based, mouse; settings: glycine or alanine mutation; 10 μM RhTx, 10 μM capsaicin
# Excerpt: TRPV1 and TRPV3 chimeras used in this study were generated by the overlapping extension method[54] and confirmed by DNA sequencing, as described previously. Briefly, to generate V1/3S, the primer pairs (5′-[…]-3′and 5′-[…]-3′) were used. To generate other TRPV1/TRPV3 chimeras, the enzyme cutting sites by MluI were made by the primer pair (5′-[…]-3′ and 5′-[…]-3′) for TRPV1 and the primer pair (5′-[…]-3′ and 5′-[…]-3′) for TRPV3. The enzyme cutting sites by PvuI were made by the primer pair (5′-[…]-3′ and 5′-[…]-3′) for TRPV1 and the primer pair (5′-[…]-3′ and 5′-[…]-3′) for TRPV3. The enzyme cutting sites by BsiWI were made by the primer pair (5′-[…]-3′ and 5′-[…]-3′) for TRPV1 and the primer pair (5′-[…]-3′ and 5′-[…]-3′) for TRPV3. […]
# Mouse DRG neurons were acutely dissociated and maintained in a short-term primary culture according to procedures as previous descripted. […] Fluorescence images of DRG neurons and HEK-293T cells were acquired with an Olympus IX81 microscope with Hamamatsu C4742 charge-coupled device camera controlled by the MetaFluor Software (Molecular Devices). Fluo-4 was excited by a mercury vapour light source with a 500/20-nm excitation filter, while fluorescence emission was detected with a 535/30-nm emission filter. Fluorescence images were required with automated routines written in MetaMorph software (Molecular Devices) and analysed with Igor Pro (Wavemetrics).
# T1 sequence (Q704Y3 whole entry): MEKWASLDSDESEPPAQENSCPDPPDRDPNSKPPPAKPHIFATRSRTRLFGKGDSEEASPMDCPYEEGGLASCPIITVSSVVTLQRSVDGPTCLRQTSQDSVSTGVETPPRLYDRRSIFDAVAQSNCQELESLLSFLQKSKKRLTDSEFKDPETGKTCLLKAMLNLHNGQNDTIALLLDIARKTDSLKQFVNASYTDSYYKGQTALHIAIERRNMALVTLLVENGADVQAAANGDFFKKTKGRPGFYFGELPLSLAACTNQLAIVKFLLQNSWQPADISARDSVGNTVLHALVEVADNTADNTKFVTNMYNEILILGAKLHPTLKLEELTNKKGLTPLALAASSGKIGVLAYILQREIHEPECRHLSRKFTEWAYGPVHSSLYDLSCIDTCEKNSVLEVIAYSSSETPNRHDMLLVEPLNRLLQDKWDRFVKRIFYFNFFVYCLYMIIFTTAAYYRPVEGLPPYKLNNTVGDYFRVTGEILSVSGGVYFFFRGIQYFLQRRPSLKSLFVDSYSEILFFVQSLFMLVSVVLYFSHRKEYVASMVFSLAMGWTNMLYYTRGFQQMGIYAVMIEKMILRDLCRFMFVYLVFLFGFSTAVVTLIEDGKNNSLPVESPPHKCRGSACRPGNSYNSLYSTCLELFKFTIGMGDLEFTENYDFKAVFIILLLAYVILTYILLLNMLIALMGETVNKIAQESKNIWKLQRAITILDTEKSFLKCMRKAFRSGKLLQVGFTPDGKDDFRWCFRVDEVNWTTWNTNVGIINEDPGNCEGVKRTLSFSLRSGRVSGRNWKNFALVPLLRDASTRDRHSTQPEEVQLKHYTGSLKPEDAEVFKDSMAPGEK
smiles,measurement,setting,value
"CC[C@H](C)[C@H](NC(=O)[C@@H]1CSSC[C@@H]2NC(=O)[C@H]([C@@H](C)O)NC(=O)[C@H](C(C)C)NC(=O)CNC(=O)[C@H](CC(N)=O)NC(=O)[C@@H](NC(=O)[C@@H]3CCCN3C(=O)[C@H](CC(N)=O)NC(=O)[C@H](CC(N)=O)NC(=O)[C@@H](N)CC(C)C)CSSC[C@H](NC(=O)[C@H](CCCNC(=N)N)NC(=O)[C@H](Cc3ccc(O)cc3)NC(=O)CNC(=O)[C@H](CO)NC(=O)[C@@H]3CCCN3C2=O)C(=O)N[C@@H](CO)C(=O)N[C@@H]([C@@H](C)CC)C(=O)N[C@@H](C(C)C)C(=O)N[C@@H](CC(=O)O)C(=O)N[C@@H](CCCCN)C(=O)N[C@@H](CCC(N)=O)C(=O)N1)C(=O)N[C@@H](CCCCN)C(=O)N[C@@H](CCCCN)C(=O)N[C@@H](CCC(=O)O)C(=O)O [RhTx] (H-LNNPCNGVTCPSGYRCSIVDKQCIKKE-OH; disulfide 5-16, 10-23; N-terminus and C-terminus assumed)",pain behaviour (paw licking),[1],elicited similar pain behaviour
same,activation of human TRPV1,[2],strongly activated
same,"effect on infrared laser-induced heat activation, 50 nM","[3]; RhTx at 50 nM in pipette, inside-out patch, +80 mV",substantially potentiated
same,lowering of the activation threshold temperature,[3]; RhTx at 100 nM,6 °C
same,"effect on infrared laser-induced heat activation, 100 nM","[3]; RhTx at 100 nM in pipette, inside-out patch, +80 mV",substantially potentiated
same,effect of lowering the experimental temperature on agonist-induced channel activation,[4],completely prohibited
same,activation of mouse TRPV1,[5],strongly activated
same,EC50,[5]; SEM,522 ± 162 nM
same,Hill slope,"[5]; whole-cell mTRPV1 currents, Hill fit, average±s.e.m., n=10, SEM",1.17±0.37
same,RP-HPLC chromatograph before versus after treatment with POPC,"[6]; 0.1 mg RhTx, POPC SUVs 10 mg/ml, 10 mM HEPES, 50 mM KCl, pH 7.0, 40 min room temperature, supernatant RP-HPLC",No difference
same,RP-HPLC chromatograph before versus after treatment with POPE/POPG,"[6]; 0.1 mg RhTx, POPE/POPG 3:1 SUVs 10 mg/ml, 150 mM KCl, 40 min room temperature, supernatant RP-HPLC",No difference
same,incorporation into the lipid membrane (initial partition experiments),"[6]; SUVs 10 mg/ml, 40 min at room temperature, ultracentrifugation 304,000g 150 min, supernatant by RP-HPLC",does not incorporate into the lipid membrane
same,TRPV1 heat response after extended incubation with toxin,[7],selectively desensitized TRPV1 heat activation but not capsaicin activation; also recorded: incapable to respond to heat
same,agonist-induced intracellular calcium increase in point mutants versus WT channel,[8],markedly reduced
